Where a name gives a salt, the structure may show the parent alone.
What follows are compounds tested on human primary T-cells, IL-2 stimulated proliferation (JAK-1 and JAK-3 dependent; reported as JAK3 activity) (assay: Human primary T-cell proliferation stimulated by IL-2 (Example 3)). Settings: Homo sapiens, T-cell, tested under conditions described in Example 3 (IL-2 stimulated human primary T-cell proliferation); read-out: ability to inhibit JAK3 activity, IC50 range (Table V).
Format: cell-based
Method in brief: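 Peripheral-blood human T-cells pre-activated via TCR/CD28, IL-2-starved overnight, then cultured 72 h at 37 °C with compound in Yssel's medium containing IL-2 (80 U/mL in cell suspension). Proliferation read as viable-cell ATP by CellTiter-Glo luminescence; reduction versus control taken as JAK pathway inhibition.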

CCN1CC2CN(c3ncc(Nc4ncc(C)c(Nc5ccc6oc(=O)[nH]c6c5)n4)cc3Cl)CC2C1 (stereo not drawn) [II-118, N2-[3-chloro-2-(3-ethyl-3,7-diazabicyclo[3.3.0]octan-7-yl)pyridin-5-yl]-5-methyl-N4-(2-oxo-2,3-dihydro-1,3-benzoxazol-5-yl)-2,4-pyrimidinediamine] and Cc1cnc(Nc2cnc(N3CC4CNCC4C3)c(F)c2)nc1Nc1ccc2oc(=O)[nH]c2c1 (stereo not drawn) [II-50, 5-{2-[5-Fluoro-6-(hexahydro-pyrrolo[3,4-c]pyrrol-2-yl)-pyridin-3-ylamino]-5-methyl-pyrimidin-4-ylamino}-3H-benzooxazol-2-one] cannot be ordered by IC50: under 500 nM for the first, under 500 nM for the second.

Compared with Cc1cnc(Nc2ccc(N3CCN(C(C)C)[C@H](C)C3)nc2)nc1Nc1ccc2oc(=O)[nH]c2c1 [II-70, (R)-5-(2-(6-(4-isopropyl-3-methylpiperazin-1-yl)pyridin-3-ylamino)-5-methylpyrimidin-4-ylamino)benzo[d]oxazol-2(3H)-one], Cc1cnc(Nc2ccc(N3CCN(C)CC3)nn2)nc1Nc1ccc2oc(=O)[nH]c2c1 [IV-3, N4-(benzo[d]oxazol-2(3H)-on-5-yl)-N2-(6-(4-methylpiperazin-1-yl)pyridazin-3-yl)-5-methylpyrimidine-2,4-diamine] is higher in IC50: under 500 nM for the first, over 10000 nM for the second. The first is the more potent here.

Cc1cnc(Nc2ccc(C(=O)NC(C)C)cc2)nc1Nc1ccc2oc(=O)[nH]c2c1 [Compound I-139, N-Isopropyl-4-[5-methyl-4-(2-oxo-2,3-dihydro-benzooxazol-5-ylamino)-pyrimidin-2-ylamino]-benzamide] and Cc1cnc(Nc2ccc(C(C)NC3CC3)cc2)nc1Nc1ccc2oc(=O)[nH]c2c1 (stereo not drawn) [Compound I-202, 5-(2-(4-(1-(cyclopropylamino)ethyl)phenylamino)-5-methylpyrimidin-4-ylamino)benzo[d]oxazol-2(3H)-one] cannot be ordered by IC50: under 500 nM for the first, under 500 nM for the second.

COc1cc(C)cc(Nc2ncc(C)c(Nc3cc(F)c4oc(=O)[nH]c4c3)n2)c1 [Compound I-430, 7-fluoro-5-(2-(3-methoxy-5-methylphenylamino)-5-methylpyrimidin-4-ylamino)benzo[d]oxazol-2(3H)-one] and COc1ccc(Nc2ncc(C)c(Nc3ccc4oc(=O)[nH]c4c3)n2)cc1C [Compound I-258, 5-(2-(4-methoxy-3-methylphenylamino)-5-methylpyrimidin-4-ylamino)benzo[d]oxazol-2(3H)-one] cannot be ordered by IC50: under 500 nM for the first, under 500 nM for the second.

First: Cc1cnc(Nc2cnc(C3CC4CCC(C3)N4C(=O)OC(C)(C)C)c(C)c2)nc1Nc1ccc2oc(=O)[nH]c2c1 (stereo not drawn) [II-65, tert-butyl 3-(3-methyl-5-(5-methyl-4-(2-oxo-2,3-dihydrobenzo[d]oxazol-5-ylamino)pyrimidin-2-ylamino)pyridin-2-yl)-8-azabicyclo[3.2.1]octane-8-carboxylate]
Second: Cc1cnc(Nc2ccc(NC3CC4CCC(C3)N4C)cc2)nc1Nc1ccc2oc(=O)[nH]c2c1 (stereo not drawn) [Compound I-121, N4-(benzo[d]oxazol-2(3H)-on-5-yl)-N2-(4-(8-methyl-8-azabicyclo[3.2.1]octan-3-ylamino)phenyl)-5-methylpyrimidine-2,4-diamine]
The IC50 of the first is lower: under 500 nM for the first, 500 to 5000 nM for the second.

Cc1cnc(Nc2cc(C(C)NC3CCC3)cc(C(F)(F)F)c2)nc1Nc1ccc2oc(=O)[nH]c2c1 (stereo not drawn) [Compound I-465, 5-(2-(3-(1-(cyclobutylamino)ethyl)-5-(trifluoromethyl)phenylamino)-5-methylpyrimidin-4-ylamino)benzo[d]oxazol-2(3H)-one] and Cc1ccc(Nc2ncc(C)c(Nc3ccc4oc(=O)[nH]c4c3)n2)cc1C(F)(F)F [Compound I-154, 5-[5-Methyl-2-(4-methyl-3-trifluoromethyl-phenylamino)-pyrimidin-4-ylamino]-3H-benzooxazol-2-one] cannot be ordered by IC50: under 500 nM for the first, under 500 nM for the second.

Cc1cnc(Nc2ccc(O)c(Cl)c2)nc1Nc1ccc2oc(=O)[nH]c2c1 [Compound I-424, 5-[2-(3-Chloro-4-hydroxy-phenylamino)-5-methyl-pyrimidin-4-ylamino]-3H-benzooxazol-2-one] and Cc1cnc(Nc2ccc(Cl)c(C(F)(F)F)c2)nc1Nc1ccc2oc(=O)[nH]c2c1 [Compound I-153, 5-[2-(4-Chloro-3-trifluoromethyl-phenylamino)-5-methyl-pyrimidin-4-ylamino]-3H-benzooxazol-2-one] cannot be ordered by IC50: under 500 nM for the first, under 500 nM for the second.

First: COc1cc(Nc2ncc(C)c(Nc3ccc4oc(=O)[nH]c4c3)n2)ccc1-c1ccncc1 [Compound I-494, 5-(2-(3-methoxy-4-(pyridin-4-yl)phenylamino)-5-methylpyrimidin-4-ylamino)benzo[d]oxazol-2(3H)-one formate salt]
Second: Cc1cnc(Nc2ccc3ccccc3c2)nc1Nc1ccc2oc(=O)[nH]c2c1 [IV-54, 5-[5-Methyl-2-(naphthalen-2-ylamino)-pyrimidin-4-ylamino]-3H-benzooxazol-2-one]
The IC50 of the first is higher: 500 to 5000 nM for the first, under 500 nM for the second.

First: Cc1cnc(Nc2ccc(N[C@H]3CCCN(Cc4ccccc4)C3)nc2)nc1Nc1ccc2oc(=O)[nH]c2c1 [II-99, (S)-5-(2-(6-(1-benzylpiperidin-3-ylamino)pyridin-3-ylamino)-5-methylpyrimidin-4-ylamino)benzo[d]oxazol-2(3H)-one]
Second: Cc1ccc(Nc2ncc(C)c(Nc3ccc4oc(=O)[nH]c4c3)n2)nc1 [IV-52, 5-(5-methyl-2-(5-methylpyridin-2-ylamino)pyrimidin-4-ylamino)benzo[d]oxazol-2(3H)-one]
The IC50 of the first is lower: under 500 nM for the first, 500 to 5000 nM for the second. The first is the more potent here.

With O=c1[nH]c2cc(Nc3nc(Nc4cccc(S(=O)(=O)N5CCOCC5)c4)ncc3F)ccc2o1 [Compound I-31, N4-(benzo[d]oxazol-2(3H)-on-5-yl)-N2-(3-(morpholinosulfonyl)phenyl)-5-fluoropyrimidine-2,4-diamine] the IC50 was under 500 nM.

Same assay, conditions: tested under conditions described in Example 3 (IL-2 stimulated human primary T-cell proliferation); read-out: ability to inhibit JAK3 activity, IC50 range (Table V)

Cc1cnc(Nc2ccc(Cl)c(F)c2)nc1Nc1ccc2oc(=O)[nH]c2c1 [Compound I-400, N2-(4-chloro-3-fluoro)phenyl-5-methyl-N4-(2-oxo-2,3-dihydro-1,3-benzoxazol-5-yl)-2,4-pyrimidinediamine] and COc1c(F)cc(Nc2ncc(C)c(Nc3ccc4oc(=O)[nH]c4c3)n2)cc1F [Compound I-381, N2-(3,5-difluoro-4-methoxy)phenyl-5-methyl-N4-(2-oxo-2,3-dihydro-1,3-benzoxazol-5-yl)-2,4-pyrimidinediamine] cannot be ordered by IC50: under 500 nM for the first, under 500 nM for the second.

First: Cc1cnc(Nc2cccc(OC(C)(C)C(N)=O)c2)nc1Nc1ccc2oc(=O)[nH]c2c1 [Compound I-335, N2-[3-(1-aminocarbonyl-1-methyl)ethoxy]phenyl-5-methyl-N4-(2-oxo-2,3-dihydro-1,3-benzoxazol-5-yl)-2,4-pyrimidinediamine]
Second: COc1cccc(Nc2ncc(C)c(Nc3ccc4oc(=O)[nH]c4c3)n2)c1C [Compound I-328, N2-(3-methoxy-2-methyl)phenyl-5-methyl-N4-(2-oxo-2,3-dihydro-1,3-benzoxazol-5-yl)-2,4-pyrimidinediamine]
The IC50 of the first is lower: under 500 nM for the first, 500 to 5000 nM for the second. The first is the more potent here.

Cc1cc(Nc2ncc(C)c(Nc3ccc4oc(=O)[nH]c4c3)n2)cc(OC(F)F)c1 [Compound I-516, N2-(3-difluoromethoxy-5-methyl)phenyl-5-methyl-N4-(2-oxo-2,3-dihydro-1,3-benzoxazol-5-yl)-2,4-pyrimidinediamine] and COc1cc(Nc2ncc(C)c(Nc3ccc4oc(=O)[nH]c4c3)n2)cc(OC)c1 [Compound I-280, N2-(3,5-dimethoxy)phenyl-5-methyl-N4-(2-oxo-2,3-dihydro-1,3-benzoxazol-5-yl)-2,4-pyrimidinediamine] cannot be ordered by IC50: under 500 nM for the first, under 500 nM for the second.

Compared with NS(=O)(=O)c1cccc(Nc2ncc(F)c(Nc3ccc4oc(=O)[nH]c4c3)n2)c1 [Compound I-18], Cn1c(=O)oc2ccc(Nc3nc(Nc4cccc(S(C)(=O)=O)c4)ncc3F)cc21 [Compound I-77, N2-((3-methylsulfonyl)phenyl)-N4-(3-methyl-2-oxo-2,3-dihydrobenzo[d]oxazol-5-yl)-5-fluoropyrimidine-2,4-diamine] is higher in IC50: under 500 nM for the first, 500 to 5000 nM for the second. The first is the more potent here.

Compared with Cc1cnc(Nc2ccc3c(n2)NC(=O)CO3)nc1Nc1ccc2oc(=O)[nH]c2c1 [IV-47, 5-methyl-N4-(2-oxo-2,3-dihydro-1,3-benzoxazol-5-yl)-N2-(2H-pyrido[3,2-b][1,4]oxazin-3 (4H)-one-6-yl)-2,4-pyrimidinediamine], COc1cc(Nc2ncc(C)c(Nc3ccc4oc(=O)[nH]c4c3)n2)ccc1N1CCN(C)CC1 [Compound I-340, N2-[3-methoxy-4-(4-methylpiperazino)]phenyl-5-methyl-N4-(2-oxo-2,3-dihydro-1,3-benzoxazol-5-yl)-2,4-pyrimidinediamine] is lower in IC50: over 10000 nM for the first, under 500 nM for the second. The second is the more potent here.

O=c1[nH]c2ccc(Nc3nc(Nc4cccc(S(=O)(=O)N5CCOCC5)c4)ncc3F)cc2[nH]1 [Compound I-32, N4-(benzimidazolin-2-on-5-yl)-N2-(3-(morpholinosulfonyl)phenyl)-5-fluoropyrimidine-2,4-diamine] and Cn1c(=O)oc2ccc(Nc3nc(Nc4ccc(F)c(NS(C)(=O)=O)c4)ncc3F)cc21 [Compound I-91, N2-((4-fluoro-3-methylsulfonylamino)phenyl)-N4-(3-methyl-2-oxo-2,3-dihydrobenzo[d]oxazol-5-yl)-5-fluoropyrimidine-2,4-diamine] fall in the same range of IC50: 500 to 5000 nM for the first, 500 to 5000 nM for the second.

For COc1cc(Nc2ncc(C)c(Nc3ccc4oc(=O)n(COP(=O)(O)O)c4c3)n2)cc(C)c1F [Compound I-538, Sodium (5-(2-(4-fluoro-3-methoxy-5-methylphenylamino)-5-methylpyrimidin-4-ylamino)-2-oxobenzo[d]oxazol-3(2H)-yl)methyl phosphate], the IC50 was 500 to 5000 nM.

Same assay, conditions: tested under conditions described in Example 3 (IL-2 stimulated human primary T-cell proliferation); trifluoroacetic acid salt; read-out: ability to inhibit JAK3 activity, IC50 range (Table V)

In the case of Cc1cnc(Nc2ccncc2F)nc1Nc1ccc2oc(=O)[nH]c2c1 [IV-64, N2-(3-fluoropyridin-4-yl)-5-methyl-N4-(2-oxo-2,3-dihydro-1,3-benzoxazol-5-yl)-2,4-pyrimidinediamine trifluoroacetic acid salt], the IC50 is reported as 500 to 5000 nM.
